Laboratory results taken from paper PMC8903780, “Therapeutic efficacy of an injectable formulation of purinostat mesylate in SU-DHL-6 tumour model” (Annals of Medicine, 2022).

Test system: human double-hit lymphoma SU-DHL-6 xenograft tumours
Format: in vivo
Conditions: positive control groups, dose column – (RTX 10 mg/kg)
Description: To better determine the anti-tumour activity of the PM/HP-β-CD complex, the SU-DHL-6 cell line xenografts were established in immunodeficiency mice. The NOD/SCID mice were subcutaneously inoculated 7 × 10^6 cells per mouse. […] A mimic of HyperCVAD regimen, standard chemotherapy for B cell lymphoma ([22],[23]), especially aggressive subtypes, for example, double-hit lymphoma, was set as a positive control group for comparison (Table 2). Satellite groups were set up in the 10 mg/kg group, 20 mg/kg group, and the Hyper-CVAD group. Animals in the satellite groups were not sacrificed at the end of the treatment and underwent long-term treatment for further investigation. In the survival study, the animal mortality criterion was that the tumour volume reached 3000 mm^3 or the individual animal died, and the animal survival time was statistically analysed.
When the experimental period was over, the tumour was weighed and photographed, the main organs and tumours were collected, fixed, and embedded in paraffin for Histological and immunohistochemical analysis.

Substance: Rituximab [RTX, reference compound]
- RTV (14 days): 24.16
- Tumour volume T/C% (14 days): 92.71%
- Tumour weight (g) X ± SD (14 days): 3.47 ± 1.07^ad g
- Tumour weight Inhibition (%) (14 days): 29.47%
- Body weight (g) X ± SD Begin (begin of treatment): 22.4 ± 0.4 g
- Tumour volume (mm^3) X ± SD Begin (begin of treatment): 153.7 ± 33.1 mm^3
- Body Weight (g) X ±SD End (end of 14 days treatment): 25.1 ± 1.0 g
- Tumour volume (mm^3) X ± SD End (end of 14 days treatment): 3505.3 ± 917.1 mm^3
- Number End/begin (regimens Table 2, 14 days): 7/7
